Measurements as given in ChEMBL document CHEMBL5338750, “Design of Sonosensitizers Integrated with Resveratrol Motif for Synergetic Sonodynamic Therapy and Nuclear Factor Kappa B Transcription Suppression of Breast Cancer” (J Med Chem, 2023).
Calls of active or inactive are those of the source. The rule behind the calls is not given here.

Experiments:
[1] = tested on: MCF7; assay: Cytotoxicity against human MCF7 cells assessed as inhibition of cell growth more than 1 uM measured for 72 hrs by MTT assay; format: functional, cell-based
[2] = biological target: Nuclear factor NF-kappa-B complex (Homo sapiens) (UniProt Q00653+P19838+Q04206); assay: Inhibition of H2O2-induced NFkappaB activation in human MCF7 cells at 1 uM measured for 12 hrs by ELISA analysis; format: cell-based
Nuclear factor NF-kappa-B complex (Homo sapiens), sequence (P19838 whole entry, looked up): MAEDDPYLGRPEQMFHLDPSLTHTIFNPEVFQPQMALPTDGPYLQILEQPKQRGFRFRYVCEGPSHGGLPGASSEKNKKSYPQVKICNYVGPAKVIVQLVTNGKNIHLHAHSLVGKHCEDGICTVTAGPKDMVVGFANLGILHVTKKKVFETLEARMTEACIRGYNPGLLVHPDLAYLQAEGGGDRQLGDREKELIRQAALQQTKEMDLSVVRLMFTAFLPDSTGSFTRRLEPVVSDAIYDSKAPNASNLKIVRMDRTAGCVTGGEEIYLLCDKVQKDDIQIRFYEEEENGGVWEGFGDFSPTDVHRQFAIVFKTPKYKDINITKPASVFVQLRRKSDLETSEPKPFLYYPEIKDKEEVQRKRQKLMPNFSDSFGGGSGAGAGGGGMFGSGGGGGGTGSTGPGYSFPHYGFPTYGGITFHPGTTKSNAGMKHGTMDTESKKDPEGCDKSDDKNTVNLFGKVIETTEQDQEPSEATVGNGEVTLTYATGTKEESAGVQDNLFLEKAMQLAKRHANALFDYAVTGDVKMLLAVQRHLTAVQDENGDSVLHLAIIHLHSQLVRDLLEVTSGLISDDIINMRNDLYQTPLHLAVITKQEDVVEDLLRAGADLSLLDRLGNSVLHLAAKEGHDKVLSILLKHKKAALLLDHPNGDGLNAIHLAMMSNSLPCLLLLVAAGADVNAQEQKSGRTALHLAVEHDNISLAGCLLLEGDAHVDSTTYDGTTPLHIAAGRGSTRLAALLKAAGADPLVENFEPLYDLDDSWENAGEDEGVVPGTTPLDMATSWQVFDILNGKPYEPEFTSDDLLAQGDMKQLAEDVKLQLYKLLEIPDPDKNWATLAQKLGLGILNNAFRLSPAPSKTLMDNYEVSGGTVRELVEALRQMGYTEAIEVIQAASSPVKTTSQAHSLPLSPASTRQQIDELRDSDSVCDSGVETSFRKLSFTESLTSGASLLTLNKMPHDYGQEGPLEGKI
Nuclear factor NF-kappa-B complex (Homo sapiens), sequence (Q00653 whole entry, looked up): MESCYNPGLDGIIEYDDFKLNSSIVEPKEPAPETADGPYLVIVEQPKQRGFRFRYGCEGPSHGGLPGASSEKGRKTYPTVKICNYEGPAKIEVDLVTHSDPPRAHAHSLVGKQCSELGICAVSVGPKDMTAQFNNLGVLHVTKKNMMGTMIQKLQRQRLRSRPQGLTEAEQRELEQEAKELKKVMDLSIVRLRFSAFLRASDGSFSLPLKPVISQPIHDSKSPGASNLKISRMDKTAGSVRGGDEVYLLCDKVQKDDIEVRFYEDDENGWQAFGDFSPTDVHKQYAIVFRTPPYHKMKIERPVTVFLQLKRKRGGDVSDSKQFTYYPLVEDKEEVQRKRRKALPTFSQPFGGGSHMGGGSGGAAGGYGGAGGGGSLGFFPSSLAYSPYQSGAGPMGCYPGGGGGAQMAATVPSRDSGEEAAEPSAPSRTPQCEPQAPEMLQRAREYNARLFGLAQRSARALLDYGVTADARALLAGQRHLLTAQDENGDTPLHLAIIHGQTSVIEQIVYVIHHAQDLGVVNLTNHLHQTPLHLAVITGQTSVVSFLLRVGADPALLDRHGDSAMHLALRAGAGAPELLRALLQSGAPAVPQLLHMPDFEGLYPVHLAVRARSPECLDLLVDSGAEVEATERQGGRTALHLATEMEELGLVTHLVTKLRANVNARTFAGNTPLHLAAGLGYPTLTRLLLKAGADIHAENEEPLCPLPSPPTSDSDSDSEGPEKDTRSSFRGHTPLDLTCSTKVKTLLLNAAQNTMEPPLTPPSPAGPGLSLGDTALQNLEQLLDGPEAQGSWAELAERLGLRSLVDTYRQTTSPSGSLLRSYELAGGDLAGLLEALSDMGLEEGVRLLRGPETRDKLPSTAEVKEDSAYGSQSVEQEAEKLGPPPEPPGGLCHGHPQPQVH
Nuclear factor NF-kappa-B complex (Homo sapiens), sequence (Q04206 whole entry, looked up): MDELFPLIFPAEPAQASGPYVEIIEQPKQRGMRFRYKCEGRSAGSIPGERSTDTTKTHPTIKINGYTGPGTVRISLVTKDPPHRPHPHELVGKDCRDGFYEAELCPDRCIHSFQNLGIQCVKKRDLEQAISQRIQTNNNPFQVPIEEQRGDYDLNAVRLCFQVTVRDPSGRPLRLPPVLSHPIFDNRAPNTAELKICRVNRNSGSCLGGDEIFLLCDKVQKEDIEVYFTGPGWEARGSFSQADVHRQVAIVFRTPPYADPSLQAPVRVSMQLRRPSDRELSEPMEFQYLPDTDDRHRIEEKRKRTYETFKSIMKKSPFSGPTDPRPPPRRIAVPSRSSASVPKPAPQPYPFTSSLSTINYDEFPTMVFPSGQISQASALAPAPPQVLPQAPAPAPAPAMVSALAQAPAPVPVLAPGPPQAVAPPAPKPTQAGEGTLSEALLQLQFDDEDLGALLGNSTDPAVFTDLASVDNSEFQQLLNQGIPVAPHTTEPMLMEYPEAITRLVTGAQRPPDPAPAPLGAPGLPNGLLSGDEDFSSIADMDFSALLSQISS

[3] = tested on: MCF7; assay: Induction of ROS generation in human MCF7 cells assessed as increase in ROS level preincubated for 4 hrs followed by ultrasonic sound treatment for 30 sec by DCFH-DA dye based flow cytometry analysis (Rvb= 3.5%); format: functional; settings: time 14430 sec; 4.008 h
[4] = tested on: MCF7; assay: Sono-cytotoxicity against human MCF7 cells assessed as inhibition of cell growth preincubated for 4 hrs followed by ultrasonic sound treatment for 5 mins by MTT assay; format: functional, cell-based
[5] = Inhibition of LPS-stimulated NO production in mouse RAW264.7 cells incubated for 24 hrs by Griess reagent based microplate reader analysis; format: functional, cell-based; settings: RAW264.7, 24 h
[6] = tested on: MCF7; assay: Sono-cytotoxicity against human MCF7 cells assessed as inhibition of cell growth preincubated for 4 hrs followed by ultrasonic sound treatment for 2 mins by MTT assay; format: functional, cell-based
[7] = tested on: MCF7; assay: Induction of apoptosis in human MCF7 cells assessed as early apoptotic cells preincubated for 4 hrs followed by ultrasonic sound treatment for 30 sec and measured after 24 hrs by Annexin V-FITC/propidium iodide double staining based flow cytometry analysis (reference value: 1.83 %); format: functional; settings: 28 h
[8] = tested on: MCF7; assay: Induction of apoptosis in human MCF7 cells assessed as necrotic cells preincubated for 4 hrs followed by ultrasonic sound treatment for 30 sec and measured after 24 hrs by Annexin V-FITC/propidium iodide double staining based flow cytometry analysis (reference value: 1.05%); format: functional; settings: 28 h
[9] = tested on: MCF7; assay: Cytotoxicity against human MCF7 cells assessed as inhibition of cell growth incubated for 72 hrs by MTT assay; format: functional, cell-based; settings: MCF7, 72 h
[10] = tested on: MCF7; assay: Induction of apoptosis in human MCF7 cells assessed as viable cells preincubated for 4 hrs followed by ultrasonic sound treatment for 30 sec and measured after 24 hrs by Annexin V-FITC/propidium iodide double staining based flow cytometry analysis (reference value: […]); format: functional; settings: 28 h
[11] = tested on: MCF7; assay: Induction of ROS generation in human MCF7 cells assessed as increase in ROS level incubated for 4 hrs by DCFH-DA dye based flow cytometry analysis (Rvb=2.9%); format: functional
[12] = Induction of hyperthermia in solvent assessed as increase in temperature at 10 uM treated with ultrasonic sound for 2 mins and measured after 5 mins; settings: time 7.0 min
[13] = tested on: MCF7; assay: Induction of ROS generation in human MCF7 cells assessed as […] preincubated for 4 hrs followed by ultrasonic sound treatment for 30 sec by DCFH-DA dye based inverted microscopy; format: functional, cell-based; settings: time 14430.0 sec
[14] = tested on: MCF7; assay: Induction of ROS generation in human MCF7 cells assessed as increase in red fluorescence incubated for 4 hrs by Hoechst 33342 staining based confocal microscopic analysis; format: functional, cell-based
[15] = tested on: MCF7; assay: Sono-cytotoxicity against human MCF7 cells assessed as inhibition of cell growth preincubated for 4 hrs followed by ultrasonic sound treatment for 30 sec by MTT assay; format: functional, cell-based
[16] = tested on: MCF7; assay: Induction of apoptosis in human MCF7 cells at 10 uM incubated for 24 hrs by Annexin V-FITC/propidium iodide double staining based flow cytometry analysis; format: functional, cell-based
[17] = tested on: MCF7; assay: Induction of apoptosis in human MCF7 cells assessed as late apoptotic cells preincubated for 4 hrs followed by ultrasonic sound treatment for 30 sec and measured after 24 hrs by Annexin V-FITC/propidium iodide double staining based flow cytometry analysis (reference value: 0 %); format: functional; settings: 28 h
[18] = Inhibition of LPS-stimulated NO production in mouse RAW264.7 cells at 10 uM incubated for 24 hrs by Griess reagent based microplate reader analysis relative to control; format: functional
[19] = tested on: MCF7; assay: Cytotoxicity against human MCF7 cells assessed as inhibition of cell growth preincubated for 72 hrs followed by ultrasonic sound treatment for 30 sec by MTT assay; format: functional, cell-based; settings: for Activity: time 259230.0 sec
[20] = Toxicity in BALB/c mouse xenografted with human MCF7 cells assessed as kidney damage at 1.2 mg/kg, iv administered for 10 days followed by ultrasonic sound treatment for 2 to 6 hrs and measured immediately by Hand E staining based analysis; format: organism-based; settings: in vivo, time 242-246 hrs
[21] = tested on: MCF7; assay: Antitumor activity against human MCF7 cells xenografted in BALB/c mouse assessed as tumor growth inhibition at 1.5 mg/kg, iv administered for 10 days followed by ultrasonic sound treatment for 2 to 6 hrs and measured immediately; format: functional; settings: time 242-246 hrs, read-out: TGI
[22] = tested on: MCF7; assay: Effect of IL-6 protein level in human MCF7 cells at 10 uM measured for 24 hrs by ELISA analysis; format: functional, cell-based
[23] = Downregulation of IL-6 expression level in serum of BALB/c mouse at 1.5 mg/kg, iv measured at 12 to 24 hrs; format: functional; settings: time 12-24 hrs
[24] = Drug uptake in BALB/c mouse limb xenografted with human MCF7 cells assessed as accumulation of red fluorescence at 1.5 mg/kg, iv measured at 6 hrs by fluorescence imaging analysis; format: ADME, organism-based; settings: in vivo
[25] = Toxicity in BALB/c mouse xenografted with human MCF7 cells assessed as liver damage at 1.2 mg/kg, iv administered for 10 days and measured immediately by Hand E staining based analysis; format: organism-based; settings: in vivo, 240 h, time 10 day
[26] = tested on: MCF7; assay: Effect of p38 protein level in human MCF7 cells at 10 uM measured for 24 hrs by ELISA analysis; format: functional, cell-based
[27] = Toxicity in BALB/c mouse xenografted with human MCF7 cells assessed as kidney damage at 1.2 mg/kg, iv administered for 10 days and measured immediately by Hand E staining based analysis; format: organism-based; settings: in vivo, 240 h, time 10 day
[28] = Toxicity in BALB/c mouse xenografted with human MCF7 cells assessed as decrease in body weight at 1.5 mg/kg, iv administered for 10 days followed by ultrasonic sound treatment for 2 to 6 hrs and measured immediately; format: organism-based; settings: in vivo, time 242-246 hrs
[29] = Toxicity in BALB/c mouse xenografted with human MCF7 cells assessed as heart damage at 1.2 mg/kg, iv administered for 10 days followed by ultrasonic sound treatment for 2 to 6 hrs and measured immediately by Hand E staining based analysis; format: organism-based; settings: in vivo, time 242-246 hrs
[30] = Toxicity in BALB/c mouse xenografted with human MCF7 cells assessed as lung damage at 1.2 mg/kg, iv administered for 10 days and measured immediately by Hand E staining based analysis; format: organism-based; settings: in vivo, 240 h, time 10 day
[31] = Toxicity in BALB/c mouse xenografted with human MCF7 cells assessed as spleen damage at 1.2 mg/kg, iv administered for 10 days followed by ultrasonic sound treatment for 2 to 6 hrs and measured immediately by Hand E staining based analysis; format: organism-based; settings: in vivo, time 242-246 hrs
[32] = Toxicity in BALB/c mouse xenografted with human MCF7 cells assessed as liver damage at 1.2 mg/kg, iv administered for 10 days followed by ultrasonic sound treatment for 2 to 6 hrs and measured immediately by Hand E staining based analysis; format: organism-based; settings: in vivo, time 242-246 hrs
[33] = tested on: MCF7; assay: Effect of TNF-alpha protein level in human MCF7 cells at 10 uM measured for 24 hrs by ELISA analysis; format: functional, cell-based
[34] = Drug uptake in BALB/c mouse skin xenografted with human MCF7 cells assessed as accumulation of red fluorescence at 1.5 mg/kg, iv measured at 6 hrs by fluorescence imaging analysis; format: ADME, organism-based, Skin of body; settings: in vivo
[35] = Toxicity in BALB/c mouse xenografted with human MCF7 cells assessed as heart damage at 1.2 mg/kg, iv administered for 10 days and measured immediately by Hand E staining based analysis; format: organism-based; settings: in vivo, 240 h, time 10 day
[36] = Toxicity in BALB/c mouse xenografted with human MCF7 cells assessed as drug tolerance at 1.5 mg/kg, iv administered for 10 days followed by ultrasonic sound treatment for 2 to 6 hrs and measured immediately; format: organism-based; settings: in vivo, time 242-246 hrs
[37] = Toxicity in BALB/c mouse xenografted with human MCF7 cells assessed as spleen damage at 1.2 mg/kg, iv administered for 10 days and measured immediately by Hand E staining based analysis; format: organism-based; settings: in vivo, 240 h, time 10 day
[38] = Toxicity in BALB/c mouse xenografted with human MCF7 cells assessed as lung damage at 1.2 mg/kg, iv administered for 10 days followed by ultrasonic sound treatment for 2 to 6 hrs and measured immediately by Hand E staining based analysis; format: organism-based; settings: in vivo, time 242-246 hrs
[39] = tested on: Mus musculus; assay: Induction of hyperthermia in BALB/c mouse xenografted with human MCF7 cells assessed as burning of skin at 1.2 mg/kg, iv administered for 10 days followed by ultrasonic sound treatment for 2 to 6 hrs and measured immediately; format: functional, organism-based; settings: time 242-246 hrs
[40] = Drug uptake in BALB/c mouse tumor xenografted with human MCF7 cells assessed as accumulation of red fluorescence at 1.5 mg/kg, iv measured at 6 hrs by fluorescence imaging analysis; format: ADME, organism-based, Neoplasm; settings: in vivo

COc1cc(/C=C/c2ccc(N(c3ccc(Br)cc3)c3ccc(-c4ccc(-c5cccs5)c5nsnc45)cc3)cc2)cc(OC)c1
Activity [1]: Active | inhibition [2]: Active | Activity [3]: 48.1% | IC50 [4]: 1200 nM | EC50 [5]: 72.9 nM | IC50 [6]: 2000 nM | Activity [7]: 87.5% | Activity [8]: 4.37% | IC50 [9]: 9.2 µM | Activity [10]: 56.4% | Activity [11]: 4.5% | T [12]: 3.4 °C | Activity [13]: inactive | Activity [14]: Active | IC50 [15]: 4.2 µM | Activity [16]: inactive | Activity [17]: 1.74% | inhibition at 10 µM [18]: 48%

COc1cc(/C=C/C(=O)CC(=O)/C=C/c2ccc(O)c(OC)c2)ccc1O
Activity [19]: Active

COc1cc(/C=C/c2ccc(N(c3ccc(/C=C/c4cc(OC)cc(OC)c4)cc3)c3ccc(-c4ccc(-c5ccc(N(c6ccc(/C=C/c7cc(OC)cc(OC)c7)cc6)c6ccc(/C=C/c7cc(OC)cc(OC)c7)cc6)cc5)c5nsnc45)cc3)cc2)cc(OC)c1
Activity [1]: Active | inhibition [2]: Active | Activity [3]: 97.5% | IC50 [19]: 3500 nM | IC50 [4]: 610 nM | EC50 [5]: 217 nM | IC50 [6]: 830 nM | Activity [7]: 28.7% | Activity [8]: 2.33% | IC50 [9]: 3.6 µM | Activity [10]: 35.4% | Activity [11]: 5.8% | T [12]: 5.9 °C | Activity [13]: inactive | Activity [14]: Active | IC50 [15]: 3.5 µM | Activity [16]: inactive | Activity [17]: 3.59% | inhibition at 10 µM [18]: 72%

COc1cc(/C=C/c2ccc(N(c3ccccc3)c3ccc(-c4ccc(-c5ccc(N(c6ccccc6)c6ccc(/C=C/c7cc(OC)cc(OC)c7)cc6)cc5)c5nsnc45)cc3)cc2)cc(OC)c1
Activity [1]: Active | Activity [20]: Non-Toxic | inhibition [2]: Active | Activity [3]: 92.8% | inhibition in vivo at 1.5 mg/kg [21]: 70% | Activity [22]: Active | IC50 [19]: 1600 nM | Activity [23]: 42% | Drug uptake [24]: Active | Activity [25]: Non-Toxic | IC50 [4]: 290 nM | EC50 [5]: 68.9 nM | Activity [26]: Active | IC50 [6]: 550 nM | Activity [7]: 70% | Activity [27]: Non-Toxic | Activity [28]: Non-Toxic | Activity [29]: Non-Toxic | Activity [30]: Non-Toxic | Activity [31]: Non-Toxic | Activity [32]: Non-Toxic | Activity [8]: 0.045% | IC50 [9]: 2.4 µM | Activity [33]: Active | Drug uptake [34]: Active | Activity [35]: Non-Toxic | Activity [36]: Non-Toxic | Activity [10]: 29.7% | Activity [11]: 12.4% | T [12]: 3.9 °C | Activity [37]: Non-Toxic | Activity [13]: inactive | Activity [38]: Non-Toxic | Activity [14]: Active | IC50 [15]: 1.6 µM | Activity [39]: Active | Activity [16]: inactive | Drug uptake [40]: Active | Activity [17]: 0.29% | inhibition at 10 µM [18]: 76%

C=CC1=C(C)c2cc3[nH]c(cc4nc(cc5[nH]c(cc1n2)c(C)c5CCC(=O)O)C(CCC(=O)O)=C4C)c(C)c3C=C
Activity [19]: Active
